Test results published in US6482921B1, “Uridyl peptide antibiotic (UPA) derivatives, their synthesis and use” (Essential Therapeutics, Inc., priority 1999, dated 2002).
≈ marks a conversion by molar mass, not a printed value. Like-named read-outs stand apart in the source and are kept apart here.

Assays:
[1] = test system: Pseudomonas aeruginosa PAM 1135; assay: MIC broth microdilution, P. aeruginosa PAM 1135 (high level UPA resistance); format: cell-based; conditions: P. aeruginosa PAM 1135 UPA1^r
[2] = test system: Pseudomonas aeruginosa PAM 1154; assay: MIC broth microdilution, P. aeruginosa PAM 1154 (OprM::Hg); format: cell-based; conditions: P. aeruginosa PAM 1154 OprM::Hg
[3] = test system: Pseudomonas aeruginosa PAM 1323; assay: MIC broth microdilution, P. aeruginosa PAM 1323 (medium level UPA resistance); format: cell-based
[4] = test system: Staphylococcus aureus ATCC 29213; assay: MIC broth microdilution, S. aureus ATCC 29213 (wild type); format: cell-based; conditions: S. aureus ATCC 29213
[5] = test system: Staphylococcus aureus 8325-4; assay: MIC broth microdilution, S. aureus 8325-4 (wild type); format: cell-based; conditions: S. aureus 8325-4
[6] = test system: Escherichia Coli MC 4100 AcrAB UPA3r; assay: MIC broth microdilution, E. coli MC 4100 AcrAB UPA3r (ΔAcrAB, UPA resistant); format: cell-based; conditions: E. coli AcrAB UPA3^r
[7] = test system: Escherichia Coli MC 4100 AcrAB; assay: MIC broth microdilution, E. coli MC 4100 AcrAB (ΔAcrAB); format: cell-based; conditions: E. coli AcrAB
[8] = test system: Escherichia Coli MC 4100; assay: MIC broth microdilution, E. coli MC 4100 (wild type); format: cell-based; conditions: E. coli MC 4100
[9] = test system: Mycobacterium tuberculosis H37Rv; assay: MIC agar dilution, M. tuberculosis H37Rv; format: cell-based
[10] = test system: Pseudomonas aeruginosa PAM 1020; assay: MIC broth microdilution, P. aeruginosa PAM 1020 (wild type); format: cell-based; conditions: P. aeruginosa PAM 1020
[11] = test system: Mycobacterium tuberculosis TN913; assay: MIC agar dilution, M. tuberculosis TN913; format: cell-based
[12] = test system: Pasteurella multocida pm002; assay: MIC broth microdilution, P. multocida pm002 (wild type); format: cell-based
[13] = test system: Mycobacterium smegmatis ATCC 19420; assay: MIC broth microdilution, M. smegmatis ATCC 19420; conditions: 72 hours at 35° C., CAMHB
[14] = test system: Mycobacterium fortuitum ATCC 6841; assay: MIC broth microdilution, M. fortuitum ATCC 6841; conditions: 72 hours at 35° C., CAMHB
[15] = agar dilution, Middlebrook 7H10 agar, four weeks at 35° C., 0, 1, 10 and 30 tested

Row | Structure (SMILES) | MIC (μg/ml) Broth microdilution [1] [µg/mL] | MIC (μg/ml) Broth microdilution [2] [µg/mL] | MIC (μg/ml) Broth microdilution [3] [µg/mL] | MIC (μg/ml) Broth microdilution [4] [µg/mL] | MIC (μg/ml) Broth microdilution [5] [µg/mL] | MIC (μg/ml) Broth microdilution [6] [µg/mL] | MIC (μg/ml) Broth microdilution [7] [µg/mL] | MIC (μg/ml) Broth microdilution [8] [µg/mL] | MIC H37RV (SENSITIVE) [9] [µg/mL] | MIC (μg/ml) Broth microdilution [10] [µg/mL] | MIC TN913 (SENSITIVE) [11] [µg/mL] | MIC (μg/ml) Broth microdilution [12] [µg/mL] | MIC Broth microdilution M. smegmatis ATCC19420 [13] [µg/mL] | MIC Broth microdilution M. fortuitum ATCC 6841 [14] [µg/mL] | MIC H37RV (SENSITIVE) [9, 15] [µg/mL] | MIC TN913 (SENSITIVE) [11, 15] [µg/mL]
1 | CC(N)C(=O)N(C)C(C)C(NC(=O)C(Cc1ccc(F)cc1)NC(=O)NC(Cc1ccc(O)cc1)C(=O)O)C(=O)NCC1CC(O)C(n2ccc(=O)[nH]c2=O)O1 [Compound 157, 1-[5′-[(2S,3S)-N^3-L-Alanyl-N^2-[N-[[(1S)-1-carboxy-4-hydroxyphenethyl]carbamoyl]-L-4-fluorophenylalanyl]-N^3-methyl-2,3-diaminobutyramido]-3′,5′-dideoxy-α-L-arabinofuranosyl]uracil] | >512 | 16 (≈ 20.4 µM) | >512 | >512 | 512 (≈ 652 µM) | <1 | <1 | 4 (≈ 5.1 µM) | 10 (≈ 12.7 µM) | 128 (≈ 163 µM) | 10 (≈ 12.7 µM) | 256 (≈ 326 µM) |  |  |  | 
2 | CC(C)C[C@H](NC(=O)N[C@@H](Cc1c[nH]c2ccccc12)C(=O)O)C(=O)N[C@H](C(=O)NC[C@H]1C[C@@H](O)[C@H](n2ccc(=O)[nH]c2=O)O1)[C@H](C)N(C)C(=O)CN [Compound 109] | >512 | <1 | 128 (≈ 173 µM) | >512 | >512 | 8 (≈ 10.8 µM) | <1 | 128 (≈ 173 µM) | >30 | 4 (≈ 5.39 µM) | 30 (≈ 40.4 µM) | 128 (≈ 173 µM) |  |  |  | 
3 | CC(N)C(=O)N(C)C(C)C(NC(=O)C(Cc1ccc(F)cc1)NC(=O)NC(Cc1c[nH]c2ccccc12)C(=O)O)C(=O)NCC1CC(O)C(n2ccc(=O)[nH]c2=O)O1 [Compound 158, 1-[5′-[(2S,3S)-N^3-L-Alanyl-N^2-[N-[[(1S)-1-carboxy-2-indol-3-ylethyl]carbamoyl]-L-4-fluorophenylalanyl]-N^3-methyl-2,3-diaminobutyramidol-3′,5′-dideoxy-α-L-arabinofuranosyl]uracil] | 256 (≈ 317 µM) | 8 (≈ 9.9 µM) | 256 (≈ 317 µM) | 512 (≈ 634 µM) | 512 (≈ 634 µM) | 32 (≈ 39.6 µM) | <1 | 512 (≈ 634 µM) | 10 (≈ 12.4 µM) | 64 (≈ 79.2 µM) | 10 (≈ 12.4 µM) | 64 (≈ 79.2 µM) | 1 (≈ 1.24 µM) | 32 (≈ 39.6 µM) |  | 
4 | CC(N)C(=O)N(C)C(C)C(NC(=O)C(Cc1ccccc1)NC(=O)NC(Cc1c[nH]c2ccccc12)C(=O)O)C(=O)NCC1CC(O)C(n2ccc(=O)[nH]c2=O)O1 [Compound 164, 1-[5′-[(2S,3S)-N^3-L-Alanyl-N^2-[N-[[(1S)-1-carboxy-2-indol-3-ylethyl]carbamoyl]-L-phenylalanyl]-N^3-methyl-2,3-diaminobutyramido]-3′,5′-dideoxy-α-L-arabinofuranosyl]uracil] | 256 (≈ 324 µM) | 4 (≈ 5.06 µM) | 256 (≈ 324 µM) | 256 (≈ 324 µM) | 128 (≈ 162 µM) | 64 (≈ 81 µM) | <1 | 512 (≈ 648 µM) | 10 (≈ 12.7 µM) | 16 (≈ 20.3 µM) | 10 (≈ 12.7 µM) | 128 (≈ 162 µM) |  |  |  | 
5 | CC(N)C(=O)N(C)C(C)C(NC(=O)C(Cc1ccc(C(F)(F)F)cc1)NC(=O)NC(Cc1c[nH]c2ccccc12)C(=O)O)C(=O)NCC1CC(O)C(n2ccc(=O)[nH]c2=O)O1 [Compound 146, 1-[5′-[(2S,3S)-N^3-L-Alanyl-N^2-[N-[[(1S)-1-carboxy-2-indol-3-ylethyl]carbamoyl]-L-4-(trifluoromethyl)phenylalanyl]-N^3-methyl-2,3-diaminobutyramido]-3′,5′-dideoxy-α-L-arabinofuranosyl]uracil] | >512 | 32 (≈ 37.3 µM) | >512 | 512 (≈ 597 µM) | 256 (≈ 298 µM) | 64 (≈ 74.6 µM) | 2 (≈ 2.33 µM) | 512 (≈ 597 µM) | 10 (≈ 11.7 µM) | 256 (≈ 298 µM) | 10 (≈ 11.7 µM) | 64 (≈ 74.6 µM) |  |  |  | 
6 | C[C@H](NC(=O)N[C@@H](Cc1c[nH]c2ccccc12)C(=O)O)C(=O)N[C@H](C(=O)N/C=C1/C[C@@H](O)[C@H](n2ccc(=O)[nH]c2=O)O1)[C@H](C)N(C)C(=O)[C@@H](N)Cc1cccc(O)c1 [Pacidamycin 4, reference compound] |  |  |  |  |  |  |  |  |  |  |  |  |  |  | >30 | >30
7 | C[C@@H]([C@H](NC(=O)[C@H](Cc1ccccc1)NC(=O)N[C@@H](Cc1c[nH]c2ccccc12)C(=O)O)C(=O)NC[C@H]1C[C@@H](O)[C@H](n2ccc(=O)[nH]c2=O)O1)N(C)C(=O)CN [Compound 128, 1-[5′-[(2S,3S)-N^2-[N-[[(1S)-1-Carboxy-2-indol-3-ylethyl]carbamoyl]-L-phenylalanyl]-N^3-glycyl-N^3-methyl-2,3-diaminobutyramido]-3′,5′-dideoxy-α-L-arabinofuranosyl]uracil] | >512 | <1 | >512 | >512 | 256 (≈ 330 µM) | 16 (≈ 20.6 µM) | 2 (≈ 2.58 µM) | 256 (≈ 330 µM) |  | 8 (≈ 10.3 µM) |  | 64 (≈ 82.5 µM) | 4 (≈ 5.16 µM) | 64 (≈ 82.5 µM) |  | 
8 | CC(N)C(=O)N(C)C(C)C(NC(=O)C(Cc1ccc(I)cc1)NC(=O)NC(Cc1ccc(O)cc1)C(=O)O)C(=O)NCC1CC(O)C(n2ccc(=O)[nH]c2=O)O1 [Compound 134, 1-[5′-[(2S,3S)-N^3-L-Alanyl-N^2-[N-[[(1S)-1-carboxy-4-hydroxyphenethyl]carbamoyl]-L-4-iodophenylalanyl]-N^3-methyl-2,3-diaminobutyramido]-3′,5′-dideoxy-α-L-arabinofuranosyl]uracil] | >512 | 32 (≈ 35.8 µM) | >512 | 512 (≈ 574 µM) | 512 (≈ 574 µM) | 32 (≈ 35.8 µM) | <1 | 128 (≈ 143 µM) |  | 256 (≈ 287 µM) |  | >512 | 16 (≈ 17.9 µM) | 32 (≈ 35.8 µM) |  | 
